According to article PMC10497752, “Heparins are potent inhibitors of ectonucleotide pyrophosphatase/phospho-diesterase-1 (NPP1) – a promising target for the immunotherapy of cancer” (Frontiers in Immunology, 2023):

Test system: ectonucleotidases expressed in U87 cell membrane preparations
Assay: Enzymatic assay on U87 cell membrane preparations (adenosine formation, CE)
Assay type: biochemical, human
Settings: 10 µg, 30 min 37°C, substrate 6 to 500 µM
Method: U87 glioblastoma cells were grown in cell culture dishes until reaching a fully covered confluent cell layer. Cells were cultivated at 37°C and 5% CO2 in DMEM with additions of 10% FCS, 1% penicillin/streptomycin (P/S) mixture and 1% L-glutamine. When confluent, the cell culture media was carefully removed and cells were frozen at -20°C overnight. The cells were then scraped off with a cell scraper using 2-3 mL of buffer (5 mM Tris, 2 mM EDTA, pH 7.4), homogenized and centrifuged for 10 min at 1000 g. The supernatant was collected and centrifuged for 60 min at 48000 g and 4°C. The pellet was then resuspended twice with Tris buffer, pH 7.4, followed by vortexing and centrifugation. The whole procedure was performed on ice. Finally, the pellet was resuspended and homogenized. A protein concentration of 1.5 mg/mL was determined with the Bradford method ([35]), and the protein was kept at -20°C until used. The enzymatic assay was performed by incubating the membrane preparation and the substrate at 37°C and 500 rpm for 30 min, followed by heat inactivation at 95°C for 5 min. For the determination of kinetic parameters, several substrate concentrations (from 6 to 500 µM of ATP or AMP) were utilized and incubated with 10 µg of membrane preparation for 30 min at 37°C, followed by heat inactivation. Capillary electrophoresis (CE) was used for analysis and quantification of the enzymatic product according to published procedures ([11], [36]). For the determination of the enzymatic activity 400 µM of ATP were employed, and three different amounts of membrane preparation (6, 10 and 30 µg of protein) were utilized. A positive control using the known NPP1 inhibitor PSB-POM-141 (20 µM) was performed ([19]). Data were obtained from three independent experiments each in duplicate measurements. […] Controls were run in parallel.

| Compound | Km |
| --- | --- |
| Nc1ncnc2c1ncn2[C@@H]1O[C@H](COP(=O)(O)O)[C@@H](O)[C@H]1O [AMP] | 38 µM |
| Nc1ncnc2c1ncn2[C@@H]1O[C@H](COP(=O)(O)OP(=O)(O)OP(=O)(O)O)[C@@H](O)[C@H]1O [ATP] | 83 µM |
